Read-outs that look alike come from different tables or passages of the source.
How the values were obtained:
[1] = molecular target: T1, FGF14:Nav1.6 C-tail complex (Homo sapiens, UniProt Q92915+Q9UQD0); assay: Split-luciferase complementation assay (LCA) in Clone V double stable HEK293 cells; assay type: cell-based; conditions: for Split Luciferase Assay Z-score Set 1 / Split Luciferase Assay % Lum Set 1: biological replicate Set 1; for Split Luciferase Assay Z-score Set 1 / Split Luciferase Assay Z-score Set 2: normalized to on-plate 0.3% DMSO controls; for Split Luciferase Assay % Lum Set 1 / Split Luciferase Assay %Lum Set 2: normalized to on-plate 0.3% DMSO controls (n=16 per plate); for Split Luciferase Assay Z-score Set 2 / Split Luciferase Assay %Lum Set 2: biological replicate Set 2; for Split Luciferase Assay %Lum Avg: average of Set 1 and Set 2, normalized to 0.3% DMSO controls
T1 construct: polymerase chain reaction (PCR) amplification of the FGF14 open reading frame (nt 1–855); C-terminal fragment of Nav1.6 (amino acids 1763–1976) fused with CD4ΔC-tail (amino acids 1–395); expressed in transfected cells
T1 sequence (Q92915 1-252 isoform Q92915-2): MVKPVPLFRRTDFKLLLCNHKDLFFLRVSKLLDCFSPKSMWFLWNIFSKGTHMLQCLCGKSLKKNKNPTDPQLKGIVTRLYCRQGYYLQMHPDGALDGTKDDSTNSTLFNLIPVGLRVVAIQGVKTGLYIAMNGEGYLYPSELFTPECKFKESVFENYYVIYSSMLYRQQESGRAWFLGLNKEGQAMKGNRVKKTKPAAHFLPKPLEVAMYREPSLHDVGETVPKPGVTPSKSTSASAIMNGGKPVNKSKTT
T1 sequence (Q9UQD0 1763-1976 limits assumed): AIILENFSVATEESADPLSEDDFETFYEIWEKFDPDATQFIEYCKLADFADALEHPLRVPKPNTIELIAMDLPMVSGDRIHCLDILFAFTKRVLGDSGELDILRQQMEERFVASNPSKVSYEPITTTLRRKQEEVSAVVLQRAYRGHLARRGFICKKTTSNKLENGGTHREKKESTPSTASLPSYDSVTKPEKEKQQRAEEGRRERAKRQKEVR

[2] = system: Clone V cells
[3] = molecular target: full-length P. pyralis luciferase (Photinus pyralis, UniProt P08659, K549A/L550V/N119G/N50D/S548I); assay type: cell-based
Chain of full-length P. pyralis luciferase (P08659 whole entry N50D/N119G/S548I/K549A/L550V, looked up): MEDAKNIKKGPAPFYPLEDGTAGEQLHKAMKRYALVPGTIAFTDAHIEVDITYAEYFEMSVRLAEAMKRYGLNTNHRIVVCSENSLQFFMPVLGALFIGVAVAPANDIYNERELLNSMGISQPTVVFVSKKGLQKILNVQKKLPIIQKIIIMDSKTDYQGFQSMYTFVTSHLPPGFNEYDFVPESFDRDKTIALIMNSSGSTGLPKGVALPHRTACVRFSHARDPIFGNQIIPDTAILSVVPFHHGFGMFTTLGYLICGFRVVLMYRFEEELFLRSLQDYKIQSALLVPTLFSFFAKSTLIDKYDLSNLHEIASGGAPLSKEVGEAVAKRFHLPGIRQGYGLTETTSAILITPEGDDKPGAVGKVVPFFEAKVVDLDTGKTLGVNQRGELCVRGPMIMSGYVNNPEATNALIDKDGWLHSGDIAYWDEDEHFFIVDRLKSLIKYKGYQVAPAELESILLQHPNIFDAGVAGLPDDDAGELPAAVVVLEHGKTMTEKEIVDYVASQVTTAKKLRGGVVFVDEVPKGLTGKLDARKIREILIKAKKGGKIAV

[4] = CC_NCI screening, normalized to on-plate 0.3% DMSO controls
[5] = CC_NCI screening, LCA luminescence
[6] = CC_NCI screening, full-length luciferase counter-screen luminescence, normalized to on-plate 0.3% DMSO controls
[7] = CC_NCI screening, full-length luciferase counter-screen, normalized to on-plate 0.3% DMSO controls

| SMILES | Split Luciferase Assay % Lum Set 1 [1, 5] [%] | Split Luciferase Assay %Lum Set 2 [1, 5] [%] | Split Luciferase Assay Z-score Set 1 ([1]; CC_NCI screening, LCA) | Split Luciferase Assay Z-score Set 2 ([1]; CC_NCI screening, LCA) | Split Luciferase Assay %Lum Avg ([1]; CC_NCI screening) [%] | Toxicity Assay % Fluor ([2]; human, 16 h, 30 µM) [%] | Toxicity Assay Z-score ([2]; human, 16 h, 30 µM) | Luciferase Assay % Lum [3, 6] [%] | Luciferase Assay Z-score [3, 7] | also measured |
| --- | --- | --- | --- | --- | --- | --- | --- | --- | --- | --- |
| NC(=O)c1ncn([C@@H]2O[C@H](CO)[C@@H](O)[C@H]2O)c1N [AICAR] |  |  |  |  |  |  |  |  |  | Split Luciferase Assay Z-score Set 1 ([1]; CC_NCI screening): 0.03; Split Luciferase Assay % Lum Set 1 ([1]; CC_NCI screening): 100.34%; Split Luciferase Assay Z-score Set 2 ([1]; CC_NCI screening): 0.84; Split Luciferase Assay %Lum Set 2 ([1]; CC_NCI screening): 110.27%; Split Luciferase Assay %Lum Avg [1]: 105.31%; Toxicity Assay % Fluor (CTB cell viability fluorescence) [2]: 108.29%; Toxicity Assay Z-score (CTB cell viability) [2]: 1.16; Luciferase Assay % Lum (full-length luciferase counter-screen) [3, 4]: 107.04%; Luciferase Assay Z-score (full-length luciferase counter-screen) [3, 4]: 0.90 |
| O=C1NC(=O)/C(=C/c2ccc(-c3ccc(F)cc3O)o2)S1 [AS 252424] |  |  |  |  |  |  |  |  |  | Split Luciferase Assay Z-score Set 1 ([1]; CC_NCI screening): -3.31; Split Luciferase Assay % Lum Set 1 ([1]; CC_NCI screening): 59.03%; Split Luciferase Assay Z-score Set 2 ([1]; CC_NCI screening): -4.84; Split Luciferase Assay %Lum Set 2 ([1]; CC_NCI screening): 40.57%; Split Luciferase Assay %Lum Avg [1]: 49.80%; Toxicity Assay % Fluor (CTB cell viability fluorescence) [2]: 99.49%; Toxicity Assay Z-score (CTB cell viability) [2]: -0.07; Luciferase Assay % Lum (full-length luciferase counter-screen) [3, 4]: 69.90%; Luciferase Assay Z-score (full-length luciferase counter-screen) [3, 4]: -3.86 |
| O=C1NC(=O)/C(=C/c2ccc3c(c2)OCO3)S1 [AS-041164] |  |  |  |  |  |  |  |  |  | Split Luciferase Assay Z-score Set 1 ([1]; CC_NCI screening): -1.38; Split Luciferase Assay % Lum Set 1 ([1]; CC_NCI screening): 82.95%; Split Luciferase Assay Z-score Set 2 ([1]; CC_NCI screening): 0.50; Split Luciferase Assay %Lum Set 2 ([1]; CC_NCI screening): 106.11%; Split Luciferase Assay %Lum Avg [1]: 94.53%; Toxicity Assay % Fluor (CTB cell viability fluorescence) [2]: 113.38%; Toxicity Assay Z-score (CTB cell viability) [2]: 1.87; Luciferase Assay % Lum (full-length luciferase counter-screen) [3, 4]: 84.77%; Luciferase Assay Z-score (full-length luciferase counter-screen) [3, 4]: -1.95 |
| O=C1NC(=O)/C(=C/c2ccc3c(c2)OC(F)(F)O3)S1 [AS-604850] |  |  |  |  |  |  |  |  |  | Split Luciferase Assay Z-score Set 1 ([1]; CC_NCI screening): -2.78; Split Luciferase Assay % Lum Set 1 ([1]; CC_NCI screening): 65.55%; Split Luciferase Assay Z-score Set 2 ([1]; CC_NCI screening): -1.96; Split Luciferase Assay %Lum Set 2 ([1]; CC_NCI screening): 75.94%; Split Luciferase Assay %Lum Avg [1]: 70.75%; Toxicity Assay Z-score (CTB cell viability) [2]: 2.25; Luciferase Assay % Lum (full-length luciferase counter-screen) [3, 4]: 62.77%; Luciferase Assay Z-score (full-length luciferase counter-screen) [3, 4]: -4.77 |
| CCN(CCO)CCCOc1ccc2c(Nc3cc(CC(=O)Nc4cccc(F)c4)[nH]n3)ncnc2c1 [AZD1152-HQPA] | 87.29 | 100.91 | -1.03 | 0.07 | 94.10 | 93.28 | -0.94 | 84.20 | -2.02 |  |
| NCCCNCCSP(=O)(O)O [Amifostine] | 109.04 | 116.51 | 0.73 | 1.34 | 112.78 | 93.47 | -0.91 |  |  | Luciferase Assay % Lum [3]: 101.20%; Luciferase Assay Z-score [3]: 0.15 |
| CC(C)(C#N)c1cc(Cn2cncn2)cc(C(C)(C)C#N)c1 [Anastrozole] | 89.47 | 99.87 | -0.85 | -0.01 | 94.67 | 95.38 | -0.65 | 100.06 | 0.01 |  |
| O=[As]O[As]=O (centres unmarked) [Arsenic trioxide] | 20.98 | 29.13 | -6.39 | -5.77 | 25.05 |  |  | 96.86 | -0.40 | Toxicity Assay % Fluor [2]: 84.44%; Toxicity Assay Z-score [2]: -2.18 |
| CNC(=O)c1ccccc1Sc1ccc2c(/C=C/c3ccccn3)n[nH]c2c1 [Axitinib] | 32.94 | 31.21 | -5.42 | -5.60 | 32.07 |  |  | 24.49 | -9.67 | Toxicity Assay % Fluor [2]: 91.66%; Toxicity Assay Z-score [2]: -1.17 |
| C=C(c1ccc(C(=O)O)cc1)c1cc2c(cc1C)C(C)(C)CCC2(C)C [BEXAROTENE] | 129.69 | 99.87 | 2.40 | -0.01 | 114.78 | 86.80 | -1.85 | 99.04 | -0.12 |  |
| Cn1c(=O)n(-c2ccc(C(C)(C)C#N)cc2)c2c3cc(-c4cnc5ccccc5c4)ccc3ncc21 [BEZ 235] | 91.64 | 100.91 | -0.68 | 0.07 | 96.28 | 90.66 | -1.31 | 98.68 | -0.17 |  |
| COC(=O)c1ccc2c(c1)NC(=O)/C2=C(\Nc1ccc(N(C)C(=O)CN2CCN(C)CC2)cc1)c1ccccc1 [BIBF-1120] | 119.91 | 123.80 | 1.61 | 1.94 | 121.85 | 89.46 | -1.47 | 102.06 | 0.26 |  |
| COc1ccc(Cl)cc1[C@]1(F)C(=O)Nc2cc(C(F)(F)F)ccc21 [BMS 204352] | 10.11 | 17.69 | -7.26 | -6.70 | 13.90 | 103.30 | 0.46 | 36.55 | -8.12 |  |
| Cc1cc(N2CCOCC2)cc2[nH]c(-c3c(NC[C@@H](O)c4cccc(Cl)c4)cc[nH]c3=O)nc12 [BMS-536924] | 56.86 | 40.57 | -3.49 | -4.84 | 48.71 |  |  | 93.73 | -0.80 | Toxicity Assay % Fluor [2]: 86.04%; Toxicity Assay Z-score [2]: -1.95 |
| CC(C)C[C@H](NC(=O)[C@H](Cc1ccccc1)NC(=O)c1cnccn1)B(O)O [BORTEZOMIB] | 55.77 | 84.27 | -3.57 | -1.28 | 70.02 | 89.20 | -1.51 | 88.79 | -1.44 |  |
| NC(=O)c1ccc(I)c([N+](=O)[O-])c1 [BSI-201] | 102.51 | 112.35 | 0.20 | 1.01 | 107.43 | 93.94 | -0.85 | 101.73 | 0.22 |  |

Source: article PMC6858373 (Scientific Reports, 2019)
